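Test compounds were applied to cells in 96-well plates for 48 hours at 5 doses. GI50: concentration for 50% inhibition of growth.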 Calls of active or inactive are those of the source. No stated cut-off is given here; in the data, active = GI50 up to about 1.1 µM and inactive = higher.
Tests used:
Assay in all cases: NCI tumour cell line growth inhibition, 48 h
786-0 = system: 786-0
ACHN = system: ACHN
CCRF-CEM = system: CCRF-CEM
EKVX = system: EKVX
HCC 2998 = system: HCC 2998
HCT-116 = system: HCT-116
HCT-15 = system: HCT-15
HOP-92 = system: HOP-92
HT-29 = system: HT-29
M14 = system: M14
MOLT-4 = system: MOLT-4
OVCAR-8 = system: OVCAR-8
SF-268 = system: SF-268
SK-MEL-5 = system: SK-MEL-5
SK-OV-3 = system: SK-OV-3
SW-620 = system: SW-620
UO-31 = system: UO-31
OVCAR-4 = system: OVCAR-4
RPMI-8226 = system: RPMI-8226

Structure (SMILES)	GI50 (786-0)	GI50 (ACHN)	GI50 (CCRF-CEM)	GI50 (EKVX)	GI50 (HCC 2998)	GI50 (HCT-116)	GI50 (HCT-15) [µM]	GI50 (HOP-92)	GI50 (HT-29)	GI50 (M14)	GI50 (MOLT-4)	GI50 (OVCAR-8)	GI50 (SF-268)	GI50 (SK-MEL-5)	GI50 (SK-OV-3)	GI50 (SW-620)	GI50 (UO-31)	GI50 (OVCAR-4)	GI50 (RPMI-8226)
CC1C2(C)OC(=N)C(C#N)(C(C)O2)C1(C#N)C#N (stereo not drawn)	22 µM (inactive)	33.3 µM (inactive)	16 µM (inactive)	30.8 µM (inactive)	20.4 µM (inactive)	24.4 µM (inactive)	15.5	16.9 µM (inactive)	28.2 µM (inactive)	18.3 µM (inactive)	36 µM (inactive)	31 µM (inactive)	30.8 µM (inactive)	13.1 µM (inactive)	> 100 µM (inactive)	16.6 µM (inactive)	42.9 µM (inactive)		
c1cc2nnsc2s1	44.5 µM (inactive)	> 100 µM (inactive)	> 100 µM (inactive)	> 100 µM (inactive)	> 100 µM (inactive)		> 100	> 100 µM (inactive)	> 100 µM (inactive)	> 100 µM (inactive)	> 100 µM (inactive)	> 100 µM (inactive)	> 100 µM (inactive)	> 100 µM (inactive)	> 100 µM (inactive)	39.2 µM (inactive)	> 100 µM (inactive)	> 100 µM (inactive)	93.5 µM (inactive)
CC1=C(C(=O)CC(=O)C(=O)Nc2ccccc2C(F)(F)F)Sc2ccccc2N1	> 100 µM (inactive)	73.3 µM (inactive)	49.7 µM (inactive)	64.7 µM (inactive)	41.1 µM (inactive)	34.8 µM (inactive)	48.4	20.8 µM (inactive)	> 100 µM (inactive)	52.4 µM (inactive)		50 µM (inactive)	15.7 µM (inactive)	37.3 µM (inactive)	> 100 µM (inactive)	33.7 µM (inactive)	25.4 µM (inactive)	29.3 µM (inactive)	60 µM (inactive)
CCOC(=O)c1ccc(/N=N/c2cc(C(=O)OCC)ccc2O)cc1	76 µM (inactive)	84.3 µM (inactive)	> 100 µM (inactive)	20.1 µM (inactive)		> 100 µM (inactive)	> 100	> 100 µM (inactive)	43.6 µM (inactive)	> 100 µM (inactive)	80.7 µM (inactive)	> 100 µM (inactive)	> 100 µM (inactive)	> 100 µM (inactive)	> 100 µM (inactive)	> 100 µM (inactive)	> 100 µM (inactive)		> 100 µM (inactive)
CC1(C)C2C/C(=C\c3ccccc3)C(=O)C1C2 (stereo not drawn)	> 100 µM (inactive)	> 100 µM (inactive)	> 100 µM (inactive)	86.9 µM (inactive)	> 100 µM (inactive)	90.4 µM (inactive)	> 100	> 100 µM (inactive)	87.9 µM (inactive)	> 100 µM (inactive)	56.9 µM (inactive)	> 100 µM (inactive)	79.8 µM (inactive)	45.5 µM (inactive)	> 100 µM (inactive)	> 100 µM (inactive)	31.1 µM (inactive)	> 100 µM (inactive)	61.8 µM (inactive)
CC(=O)OC1c2ccccc2CCCCCCC12OCCO2 (stereo not drawn)	> 100 µM (inactive)	> 100 µM (inactive)	> 100 µM (inactive)		> 100 µM (inactive)	> 100 µM (inactive)	68.1		> 100 µM (inactive)	86.5 µM (inactive)	60.3 µM (inactive)	> 100 µM (inactive)	> 100 µM (inactive)	55.5 µM (inactive)	> 100 µM (inactive)	> 100 µM (inactive)	> 100 µM (inactive)	> 100 µM (inactive)	48.3 µM (inactive)
O=c1c2cc(Br)cc(Br)c2nc(CCCl)n1CCO	> 100 µM (inactive)	60.7 µM (inactive)	41 µM (inactive)	73.8 µM (inactive)	> 100 µM (inactive)	> 100 µM (inactive)		28.8 µM (inactive)	> 100 µM (inactive)	97.7 µM (inactive)	46.9 µM (inactive)	> 100 µM (inactive)	47.1 µM (inactive)	53.2 µM (inactive)	58.7 µM (inactive)	> 100 µM (inactive)	34.7 µM (inactive)	52.8 µM (inactive)	34.8 µM (inactive)
NNC(=O)c1ccccc1NC(=O)/C(=C/c1ccccc1)NC(=O)c1ccccc1	> 100 µM (inactive)	> 100 µM (inactive)	43.6 µM (inactive)	> 100 µM (inactive)	> 100 µM (inactive)	88.1 µM (inactive)	46.7	> 100 µM (inactive)	> 100 µM (inactive)	81.1 µM (inactive)	> 100 µM (inactive)	> 100 µM (inactive)	> 100 µM (inactive)	> 100 µM (inactive)	> 100 µM (inactive)	> 100 µM (inactive)	65.3 µM (inactive)	> 100 µM (inactive)	> 100 µM (inactive)

— ChEMBL document CHEMBL1201862, “PubChem BioAssay data set” (2004)
